The source of these data is ChEMBL document CHEMBL5247681, “Covalent S-Adenosylhomocysteine-Based DNA Methyltransferase 2 Inhibitors with a New Type of Aryl Warhead” (ACS Med Chem Lett, 2023).

Assay type in all cases: physicochemical
Data set [1] is described as follows: Stability of compound in TRIS buffer at pH 8 assessed as compound conversion in presence of DTT measured after 90 mins by LC-MS analysis. The note with it: TRIS buffer with DTT, read-out: Drug metabolism.
Data set [2] is described as follows: Stability of compound in TRIS buffer at pH 8 assessed as compound conversion in presence of DTT measured for 2 to 90 mins by LC-MS analysis. The conditions noted are these: time 2-90 min.
Data set [3] is described as follows: Stability of compound in TRIS buffer at pH 8 assessed as compound conversion in presence of DTT measured after 15 mins by LC-MS analysis. The note with it: TRIS buffer with DTT, read-out: Drug metabolism.

Consider `Nc1ncnc2c1ncn2[C@@H]1O[C@H](CN(CC[C@H](N)C(=O)O)S(=O)(=O)c2ccc(Br)c([N+](=O)[O-])c2)[C@@H](O)[C@H]1O`, for which the degraded at 1.5 h in data set [1] worked out at 100%. Moreover, in data set [2], the Stability entry is given as “Unstable”. Besides, in data set [3], the degraded at 0.25 h is 60%.
In the case of `Nc1ncnc2c1ncn2[C@@H]1O[C@H](CN(CC[C@H](N)C(=O)O)S(=O)(=O)c2ccc(F)c([N+](=O)[O-])c2)[C@@H](O)[C@H]1O`, in data set [2], the Stability result is given as “Unstable”.
For the compound `Nc1ncnc2c1ncn2[C@@H]1O[C@H](CN(CC[C@H](N)C(=O)O)S(=O)(=O)c2ccc(Cl)c([N+](=O)[O-])c2)[C@@H](O)[C@H]1O`, the degraded at 1.5 h in data set [1] was 100%. The Stability entry in data set [2] is listed as “Unstable”. Also, the degraded at 0.25 h in data set [3] came to 60%.
